The results in this text go back to ChEMBL document CHEMBL5241129, “Design and synthesis of novel orexin 2 receptor agonists with a 1,3,5‑trioxazatriquinane skeleton” (Bioorg Med Chem Lett, 2023).

Assay [1] deals with T1, Orexin/Hypocretin receptor type 1 (Homo sapiens) (UniProt O43613).
T1 sequence (whole entry): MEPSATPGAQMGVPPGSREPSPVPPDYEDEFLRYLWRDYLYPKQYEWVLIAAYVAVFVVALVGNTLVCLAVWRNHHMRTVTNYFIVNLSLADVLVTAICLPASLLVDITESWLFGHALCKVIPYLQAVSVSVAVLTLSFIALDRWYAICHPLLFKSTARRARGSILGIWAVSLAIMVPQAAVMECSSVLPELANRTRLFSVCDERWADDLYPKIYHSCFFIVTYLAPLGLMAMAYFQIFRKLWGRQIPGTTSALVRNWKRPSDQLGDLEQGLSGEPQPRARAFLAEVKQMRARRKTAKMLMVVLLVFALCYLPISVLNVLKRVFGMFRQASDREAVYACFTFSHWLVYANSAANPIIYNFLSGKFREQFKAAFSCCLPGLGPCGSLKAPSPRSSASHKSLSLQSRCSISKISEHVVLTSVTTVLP
Briefly: Agonist activity at OX1R (unknown origin) expressed in CHO cells at 10 uM by cell based calcium assay relative to orexin A.

The target of assay [2] is T2, Orexin receptor type 2 (Homo sapiens) (UniProt O43614).
T2 sequence (whole entry): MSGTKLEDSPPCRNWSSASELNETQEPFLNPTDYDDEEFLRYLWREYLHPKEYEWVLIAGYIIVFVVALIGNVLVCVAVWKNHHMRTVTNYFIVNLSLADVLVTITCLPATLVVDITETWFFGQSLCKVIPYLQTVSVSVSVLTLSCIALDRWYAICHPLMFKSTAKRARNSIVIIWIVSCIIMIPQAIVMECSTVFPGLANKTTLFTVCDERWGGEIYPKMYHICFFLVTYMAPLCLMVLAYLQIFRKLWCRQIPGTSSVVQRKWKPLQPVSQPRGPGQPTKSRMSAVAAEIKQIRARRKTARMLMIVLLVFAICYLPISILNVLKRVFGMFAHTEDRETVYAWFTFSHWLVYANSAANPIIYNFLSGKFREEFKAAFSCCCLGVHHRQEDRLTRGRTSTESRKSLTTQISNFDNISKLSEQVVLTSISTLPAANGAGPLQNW
The assay can be described thus: Agonist activity at OX2R (unknown origin) expressed in CHO cells at 10 uM by cell based calcium assay.

For assay [3], the target named is T1, Orexin/Hypocretin receptor type 1 (Homo sapiens). The assay can be described thus: Antagonist activity at OX1R (unknown origin) expressed in CHO cells at 10 uM in presence of orexin A by cell based calcium assay.
The target in assay [4] is T3, Orexin/Hypocretin receptor type 1 (Homo sapiens, UniProt O43613).
T3 sequence (O43613 whole entry): T1 sequence (whole entry)
Briefly: Antagonist activity at OX1R (unknown origin).

The target of assay [5] is T1, Orexin/Hypocretin receptor type 1 (Homo sapiens). Briefly: Agonist activity at OX1R (unknown origin) expressed in CHO cells at 10 uM by cell based calcium assay.
The target of the next assay is T4, Orexin receptor type 2 (Homo sapiens, UniProt O43614).
T4 sequence (O43614 whole entry): T2 sequence (whole entry)
The assay can be described thus: Agonist activity at OX2R (unknown origin) expressed in CHO cells by cell based calcium assay.

Activity calls are given as the source filed them. The rule behind the calls is not given here.

With `CC(C)(C)NC(=O)NC[C@@]1(C)O[C@@H]2CO[C@H]3N2[C@@H]1O[C@]3(C)CNC(=O)NC(C)(C)C`, the Emax in assay [1] was 2.81%.

`CC(C)(C)OC(=O)NC[C@@]1(C)O[C@H]2N3[C@@H](CO[C@@H]31)O[C@@]2(C)CNC(=O)OC(C)(C)C`: the Emax in assay [1] stood at 4.94%.

As to `C[C@]1(CNC(=O)CCc2ccccc2)O[C@H]2CO[C@@H]3N2[C@H]1O[C@]3(C)CNC(=O)CCc1ccccc1`, the outcome in assay [2] was inactive.

With `CCCS(=O)(=O)NC[C@@]1(C)O[C@@H]2CO[C@H]3N2[C@@H]1O[C@]3(C)CNS(=O)(=O)CCC`, the result in assay [3] was inactive. The maximal effect (Emax) in assay [1] worked out at 14.2%.

Consider `CC(C)(C)OC(=O)NC[C@@]1(C)O[C@@H]2CO[C@H]3N2[C@@H]1O[C@@]3(C)CNC(=O)OC(C)(C)C`, for which the Emax in assay [1] was determined as 2.21%.

As to `CCCCS(=O)(=O)NC[C@@]1(C)O[C@@H]2CO[C@H]3N2[C@@H]1O[C@]3(C)CNS(=O)(=O)CCCC`, the result in assay [3] was inactive. In addition, the Emax in assay [1] was found to be 11.1%.

For `COc1ccccc1C(=O)NC[C@]1(C)O[C@H]2CO[C@@H]3N2[C@H]1O[C@@]3(C)CNC(=O)c1ccccc1OC`, in assay [2], the outcome was inactive.

For `CC(=O)NC[C@]1(C)O[C@H]2CO[C@@H]3N2[C@H]1O[C@@]3(C)CNC(C)=O`, the outcome in assay [2] was inactive.

Take `C[C@]1(CNC(=O)OCC(Cl)(Cl)Cl)O[C@H]2CO[C@@H]3N2[C@H]1O[C@]3(C)CNC(=O)OCC(Cl)(Cl)Cl`: the result in assay [2] was inactive.

Consider `CCCCCCCCS(=O)(=O)NC[C@@]1(C)O[C@@H]2CO[C@H]3N2[C@@H]1O[C@@]3(C)CNS(=O)(=O)CCCCCCCC`, for which the Emax in assay [1] turned out to be 3.86%.

Take `CCCCCCCCS(=O)(=O)N(C)C[C@@]1(C)O[C@@H]2CO[C@H]3N2[C@@H]1O[C@]3(C)CN(C)S(=O)(=O)CCCCCCCC`: the Emax in assay [1] was 2.65%.

For `C[C@@]1(CNC(=O)OCC(Cl)(Cl)Cl)O[C@H]2CO[C@@H]3N2[C@H]1O[C@@]3(C)CNC(=O)OCC(Cl)(Cl)Cl`, the outcome in assay [2] was inactive.

`C[C@]1(CNC(=O)Cc2ccccc2)O[C@H]2CO[C@@H]3N2[C@H]1O[C@]3(C)CNC(=O)Cc1ccccc1`: the outcome in assay [2] was inactive.

Turning to `COC(=O)NC[C@]1(C)O[C@H]2CO[C@@H]3N2[C@H]1O[C@@]3(C)CNC(=O)OC`, the outcome in assay [2] was inactive.

For the compound `CCCCCCCCS(=O)(=O)NC[C@]1(C)O[C@@H]2CO[C@H]3N2[C@@H]1O[C@@]3(C)CNS(=O)(=O)CCCCCCCC` (stereo in doubt; 28a), the result in assay [3] was inactive. In addition, in assay [1], the Emax was found to be 11.8%.

For `CCCCCCCCS(=O)(=O)NC[C@@]1(C)O[C@@H]2CO[C@H]3N2[C@@H]1O[C@]3(C)CNS(=O)(=O)CCCCCCCC` (racemic), the outcome in assay [3] was inactive. In addition, in assay [1], the Emax was determined as 23.6%.

For the compound `CC(C)(C)OC(=O)NC[C@@]1(C)O[C@H]2CO[C@@H]3N2[C@H]1O[C@]3(C)CNC(=O)OC(C)(C)C`, in assay [1], the Emax stood at 4.31%.

Take `COc1cccc(C(=O)NC[C@@]2(C)O[C@H]3CO[C@@H]4N3[C@H]2O[C@]4(C)CNC(=O)c2cccc(OC)c2)c1`: the result in assay [2] was inactive.

The compound `COc1ccc(C(=O)Nc2cccc([C@]3(C)O[C@H]4CO[C@@H]5N4[C@H]3O[C@@]5(C)c3cccc(NC(=O)c4ccc(OC)cc4)c3)c2)cc1` yielded a Ki in assay [4] of 5.23 nM. That is a single-digit nanomolar value.

`COC(=O)NC[C@@]1(C)O[C@H]2CO[C@@H]3N2[C@H]1O[C@]3(C)CNC(=O)OC`: the result in assay [2] was inactive.

As to `CC(C)(C)OC(=O)NC[C@@]1(C)O[C@@H]2CO[C@H]3N2[C@@H]1O[C@]3(C)CNC(=O)OC(C)(C)C` (racemic), in assay [3], the result was inactive. For the same compound, in assay [1] (filed as agonist), the Emax was determined as 54%.

As to `CC(C)(C)C(=O)NC[C@@]1(C)O[C@H]2CO[C@@H]3N2[C@H]1O[C@]3(C)CNC(=O)C(C)(C)C`, the outcome in assay [2] was inactive.

On to `C[C@@]1(CNC(=O)/C=C/c2ccccc2)O[C@H]2CO[C@@H]3N2[C@H]1O[C@@]3(C)CNC(=O)/C=C/c1ccccc1`, for which the outcome in assay [2] was inactive.

With `C[C@@]1(CNC(=O)Cc2ccccc2)O[C@H]2CO[C@@H]3N2[C@H]1O[C@@]3(C)CNC(=O)Cc1ccccc1`, the result in assay [2] was inactive.

For `COc1ccccc1C(=O)NC[C@@]1(C)O[C@H]2CO[C@@H]3N2[C@H]1O[C@]3(C)CNC(=O)c1ccccc1OC`, the result in assay [2] was inactive.

Take `CCCCCCCCS(=O)(=O)NC[C@@]1(C)O[C@H]2N3[C@@H](CO[C@@H]31)O[C@@]2(C)CNS(=O)(=O)CCCCCCCC`: the Emax in assay [1] worked out at 3.71%.

As to `CN(C[C@@]1(C)O[C@@H]2CO[C@H]3N2[C@@H]1O[C@]3(C)CN(C)C(=O)OC(C)(C)C)C(=O)OC(C)(C)C`, the maximal response (Emax) in assay [1] came to 4.47%.

As to `C[C@]1(CNC(=O)/C=C/c2ccccc2)O[C@H]2CO[C@@H]3N2[C@H]1O[C@]3(C)CNC(=O)/C=C/c1ccccc1`, the result in assay [2] was inactive.

With `C[C@@]1(CNC(=O)OCc2ccccc2)O[C@H]2CO[C@@H]3N2[C@H]1O[C@@]3(C)CNC(=O)OCc1ccccc1`, the outcome in assay [2] was inactive.

For `C[C@]1(CNS(C)(=O)=O)O[C@@H]2CO[C@H]3N2[C@@H]1O[C@]3(C)CNS(C)(=O)=O`, the outcome in assay [3] was inactive. For the same compound, the Emax in assay [1] was 5.66%.

For `CC(C)(C)OC(=O)NC[C@]1(C)O[C@@H]2CO[C@H]3N2[C@@H]1O[C@@]3(C)CNC(=O)OC(C)(C)C` (stereo in doubt; 20a), the Emax in assay [1] is 30.1%.

Take `C[C@]1(CNS(=O)(=O)c2ccccc2)O[C@H]2CO[C@@H]3N2[C@H]1O[C@]3(C)CNS(=O)(=O)c1ccccc1`: the outcome in assay [2] and in assay [5] was inactive.

Turning to `C=CCOC(=O)NC[C@]1(C)O[C@H]2CO[C@@H]3N2[C@H]1O[C@@]3(C)CNC(=O)OCC=C`, the outcome in assay [2] was inactive.

As for `COc1cccc(C(=O)NC[C@]2(C)O[C@H]3CO[C@@H]4N3[C@H]2O[C@@]4(C)CNC(=O)c2cccc(OC)c2)c1`, in assay [2], the result was inactive.

For `CCCCCCCCS(=O)(=O)NC[C@@]1(C)O[C@H]2CO[C@@H]3N2[C@H]1O[C@]3(C)CNS(=O)(=O)CCCCCCCC`, the EC50 at Orexin receptor type 2 came out at 2420 nM. Besides, the Emax in assay [1] turned out to be 5.29%.

For the compound `CCCCCCCCS(=O)(=O)NC[C@]1(C)O[C@@H]2CO[C@H]3N2[C@@H]1O[C@@]3(C)CNS(=O)(=O)CCCCCCCC` (stereo in doubt; (+)-28d) [listing 1 of 2 here], the maximal response (Emax) in assay [1] was 5.66%.

In the case of `COc1ccc(C(=O)NC[C@]2(C)O[C@H]3CO[C@@H]4N3[C@H]2O[C@@]4(C)CNC(=O)c2ccc(OC)cc2)cc1`, the outcome in assay [2] was inactive.

For the compound `CC(C)(C)C(=O)NC[C@]1(C)O[C@H]2CO[C@@H]3N2[C@H]1O[C@@]3(C)CNC(=O)C(C)(C)C`, in assay [2], the result was inactive.

For the compound `C[C@]1(CNC(=O)c2ccccc2)O[C@H]2CO[C@@H]3N2[C@H]1O[C@]3(C)CNC(=O)c1ccccc1`, in assay [2], the outcome was inactive.

`COc1ccc(C(=O)Nc2cccc([C@@]3(C)O[C@@H]4CO[C@H]5N4[C@@H]3O[C@]5(C)c3cccc(NC(=O)c4ccc(OC)cc4)c3)c2)cc1`: the Ki in assay [4] was determined as 2.17 nM.

Turning to `COc1ccc(C(=O)NC[C@@]2(C)O[C@H]3CO[C@@H]4N3[C@H]2O[C@]4(C)CNC(=O)c2ccc(OC)cc2)cc1`, the result in assay [2] was inactive.

Take `CC(C)(C)OC(=O)NC[C@]1(C)O[C@@H]2CO[C@H]3N2[C@@H]1O[C@@]3(C)CNC(=O)OC(C)(C)C` (stereo in doubt; (+)-20d): the Emax in assay [1] is 5.07%.

In the case of `C[C@]1(CNC(=O)OCc2ccccc2)O[C@H]2CO[C@@H]3N2[C@H]1O[C@]3(C)CNC(=O)OCc1ccccc1`, the outcome in assay [2] was inactive.

With `C[C@@]1(CNC(=O)c2ccccc2)O[C@H]2CO[C@@H]3N2[C@H]1O[C@@]3(C)CNC(=O)c1ccccc1`, the result in assay [2] was inactive.

On to `CC(=O)NC[C@@]1(C)O[C@H]2CO[C@@H]3N2[C@H]1O[C@]3(C)CNC(C)=O`, for which, in assay [2], the outcome was inactive.

`C=CCOC(=O)NC[C@@]1(C)O[C@H]2CO[C@@H]3N2[C@H]1O[C@]3(C)CNC(=O)OCC=C`: the outcome in assay [2] was inactive.

For `CCCCCCCCS(=O)(=O)NC[C@]1(C)O[C@@H]2CO[C@H]3N2[C@@H]1O[C@@]3(C)CNS(=O)(=O)CCCCCCCC` (stereo in doubt; (+)-28d) [listing 2 of 2 here], the half-maximal effective concentration (EC50) at Orexin receptor type 2 was 1620 nM.

On to `C[C@@]1(CNC(=O)CCc2ccccc2)O[C@H]2CO[C@@H]3N2[C@H]1O[C@@]3(C)CNC(=O)CCc1ccccc1`, for which the outcome in assay [2] was inactive.
